Several values for one entry are separate records, joined by “and”; a condition that tells them apart may be missing. Identical values can stand only once.
How the values were obtained:
DNA = conditions: Eastman 1987; cited from earlier work
[1] = tested on: enterohemorrhagic E. coli (EHEC); test: Persister cell assay of pathogens (stationary phase); assay type: cell-based, Escherichia coli; conditions: stationary-phase cells, buffered LB; cisplatin 500 μg/mL, 5×MIC, 3 h
Experimental: (§1) For the persister cell assay of the pathogens, stationary-phase cells were used. Cultures of EHEC, P. aeruginosa, and S. aureus were prepared by a 1:1000 dilution of overnight grown cultures (LB medium for EHEC and P. aeruginosa, TSB for S. aureus) into fresh buffered LB medium for EHEC, M9-glucose for P. aeruginosa, and TSB for S. aureus and re-growing the cells to a turbidity of 3 to 4 at 600 nm for EHEC and S. aureus and growing for 24 h for P. aeruginosa. Stationary-phase cultures of EHEC (buffered LB medium), P. aeruginosa (M9-glucose medium), and S. aureus (TSB medium) were then treated with cisplatin (500 μg/mL for EHEC and S. aureus, 250 μg/mL for P. aeruginosa) for 3 h (250 mL flask, 250 rpm).

[2] = tested on: S. aureus clinical isolates 5B and 50F; test: Persister cell assay, clinical isolates; assay type: cell-based, Staphylococcus aureus; conditions: for survival: stationary phase, 500 μg/mL of cisplatin
Experimental: as §1, with “Stationary-phase cultures of EHEC (buffered LB medium), P. aeruginosa (M9-glucose medium), and S. aureus (TSB medium) were then treated with cisplatin (500 μg/mL for EHEC and S. aureus, 250 μg/mL for P. aeruginosa) for 3 h (250 mL flask, 250 rpm).” left out

Compound: N.N.[Cl][Pt][Cl] [cisplatin, cis-diamminodichloroplatinum(II)]
- intrastrand crosslinks at AG sequences (DNA): 17-19% and 17 to 19%
- intrastrand crosslinks at GNG sequences (DNA): < 8%
- intrastrand crosslinks at adjacent guanines (DNA): 54-65% and 54 to 65%
- cell viability after treatment [1]: eradicated
- cell viability after treatment ([2]; both clinical isolates, 800 μg/mL): completely eradicate
- survival ([2]; isolate 5B): 2.5±3.5%
- survival ([2]; isolate 50F): 10±4%

Source: patent US10238689B2, “Methods for combating bacterial infections by killing persister cells with mitomycin C and/or cisplatin” (THE PENN STATE RESEARCH FOUNDATION, priority 2015, dated 2019)
